Data: patent US12398141B2 (SHANGHAI SYNERGY PHARMACEUTICAL SCIENCES CO., LTD, priority 2019, dated 2025)

Assays:
[1] = test system: Blast T cell; experiment: Cell proliferation test of IL-2 stimulated Blast T cell; type: cell-based; settings: Homo sapiens; IL-2 stimulated Blast T cell proliferation, 72 hours
Procedure: Inhibiting test of the compounds of the invention on proliferation of Blast T cell and TF-1 cell (American type culture collection) was carried out by the following method. The tested compounds […], and […] were dissolved in dimethyl sulfoxide from 0.0006 to 10 μM in quadruplicate dilutions. […] 10 μg/ml […] was added to stimulate and obtain cells with a density of 2×10^6/mL, which were incubated for 3 days. The cells were washed with phosphate buffer for three times and IL-2 (100 u/ml) was added to stimulate for 1 week. Cells were suspended using the culture medium and seeded at 5×10^4 cell/well density into 96-well plates, and incubated for 1 h with the prepared test compound or DMSO control at various concentrations from 0.0006 to 10 μM diluted by 4-fold volume. After incubation with 20 u/ml of IL-2 (50 μl/well without reference well) for 72 hours, Celltiter Glo® reagent (Promega, G7571) was added and mixed for 5 minutes, then incubated for 30 minutes at room temperature. The luminescence value was read on SpectraMax L (Molecular Device). […] The IC50 values of the corresponding compounds were then obtained by fitting by using the XLFit fitting tool in excel.

[2] = test system: TF-1 cell; experiment: TF-1 cell proliferation test; type: cell-based; settings: Homo sapiens, 72 h
Procedure: Inhibiting test of the compounds of the invention on proliferation of Blast T cell and TF-1 cell (American type culture collection) was carried out by the following method. The tested compounds […], and […] were dissolved in dimethyl sulfoxide from 0.0006 to 10 μM in quadruplicate dilutions. […] The luminescence value was read on Microplate Reader (Molecular Device). […] The IC50 values of the corresponding compounds were then obtained by fitting by using the XLFit fitting tool in excel.

[3] = test system: male ICR mice; experiment: Carrageenan-induced paw swelling in mice; type: in vivo; settings: 10 mg/kg intragastric; for Paw swelling_0.5 h (%): 0.5 h; for Paw swelling rate_1 h (%): 1 h; for Paw swelling rate_2 h (%): 2 h
Procedure: The inhibiting effects of compounds H01, H07, H11, H12, H14, H15, H22, H25, H29, H30, H33, H39 and H44 on paw swelling in mice were determined after intragastric administration by using male ICR mice (ShanghaiSippr-BK laboratory animal Co. Ltd.), aged 8 weeks and weighing 22-24 g as test animals. The anti-inflammatory pharmacodynamics characteristic of the compounds of the invention was discussed.
A certain amount of compounds were taken and dissolved in 4% Tween 80/0.5% hydroxy propyl methyl cellulose solution. A volume of intragastric administration in mice was 10 ml/kg.
Mice were given 10 mg/kg compounds H01, H07, H11, H12, H14, H15, H22, H25, H29, H30, H33, H39, and H44 and the positive drug indomethacin (Diamond Reagent Co., Ltd., China) by intragastric administration at the dosages shown in the table below and 20 μL 1% (W/V) carrageenan was injected subcutaneously into the plantar 0.5 h later. A paw volume was measured with a paw swelling meter before and at different time points after modeling (0.5 h, 1 h and 2 h). According to the formula: paw swelling rate=(paw volume after administration−basic paw volume)/basic paw volume×100, the inhibiting effect of the compounds on paw volume was calculated. The basic paw volume was a paw volume before administration.

[4] = Pharmacokinetic test after intragastric administration; type: in vivo; settings: Sprague-Dawley, mouse, plasma, po, SD mice, 5 mg/kg intragastric; for AUC(0-t): read-out: Area under the curve (AUC0-24, ng/ml · h); for Cmax: read-out: Plasma concentration (Cmax, ng/ml); for half-life: read-out: half life (T1/2, h) (converted)
Procedure: Drug concentrations of compounds H01, H07, H11, H12, H14, H15, H22, H25, H29, H30, H33, H39 and H44 intragastrically administrated in plasma by using LC/MS/MS method at various time points were determined by using Sprague-Dawley (SD) […], aged 7-8 weeks and weighing […] as test animals. Pharmacokinetic behavior of the compounds of the invention in […] was studied and its pharmacokinetic characteristics were evaluated.
A certain amount of compounds was taken and dissolved in 50% PEG400/water to prepare a uniform solution.
Mice were administered intragastrically with the above compounds with a dosage of 5 mg/kg. Blood (0.2 ml) was taken from orbits before administration and 0.083 h, 0.25 h, 0.5 h, 1.0 h, 2.0 h, 4.0 h, 6.0 h, 8.0 h, 12.0 h and 24.0 h after administration. The blood was placed in anticoagulant tubes containing dipotassium ethylene glycol diethyl ether diamine tetraacetic acid, centrifugated at 6000 rpm at 4° C. for 10 minutes to separate plasma and saved at −80° C.
50 μL plasma at various time was taken and 150 μL acetonitrile solution containing internal standard tolbutamide (Sigma, USA) was added, mixed and stirred for 5 minutes. After centrifugation for 5 minutes at 12,000 rpm, 100 μL supernatant was taken, mixed with 200 μL water, following by sample injection and analysis.
Liquid chromatogram system was LC-20AD UFLC High Performance Liquid Chromatography system. Mass spectrum system was AB Sciex API4000 triple quadrupole mass spectrometer equipped with Electron Spray Ionization (ESI) (Applied Biosystems, Canada). A software for controlling liquid chromatography-mass spectrometry and quantitative analysis was Anna Rust 1.6 (Applied Biosystems, Canada). Pharmacokinetic parameters were analyzed by WinNonlin (version 5.2, Pharsight, Mountain View, […]) non-compartment model.
The test compound was dissolved in dimethyl sulfoxide to prepare a stock solution with a concentration of 1 mg/mL. The solution was diluted with 50% acetonitrile to obtain a series of standard working solutions with concentrations of 10 μg/mL, 3 μg/mL, 1 μg/mL, 0.3 μg/mL, 0.1 μg/mL, 0.03 μg/mL and 0.01 μg/mL, and a series of standard quality control solutions with concentrations of 8 μg/mL, 0.5 μg/mL, 0.03 μg/mL. 5 μL standard solution was mixed with 45 μL blank plasma substrate uniformly to obtain standard solutions of each concentration of a standard curve (1000 ng/mL, 500 ng/mL, 200 ng/mL, 100 ng/mL, 10 ng/mL, 5 ng/mL, 2 and 1 ng/mL) and quality control solutions (plasma samples: 800 ng/mL, 50 and 3 ng/mL).
Internal standard tolbutamide solid powder was dissolved in dimethyl sulfoxide to prepare a 1 mg/mL stock solution. The stock solution was diluted with 100% acetonitrile to obtain 200 ng/mL solution as a protein precipitation solution.

Compound | IC50 [1] | IC50 [2] | Paw swelling_0.5 h (%) [3] | Paw swelling rate_1 h (%) [3] | Paw swelling rate_2 h (%) [3] | AUC(0-t) [4] | Cmax [4] | half-life [4]
N#Cc1cnc2[nH]ccc2c1N[C@H]1C[C@@H](NS(=O)(=O)CCC(F)(F)F)C1 [Compound H12, (cis)-4-{[3-(3,3,3-trifluoropropanesulfonamido)-cyclobutyl-1-yl]-amino}-1H-pyrrolo[2,3-b]pyridin-5-carbonitrile] | 0.011 µM | 1.67 µM | 38.45 ± 4.37% | 45.64 ± 3.58% | 41.66 ± 5.38% | 1020 ± 266 ng·h/mL | 644 ± 82 ng/mL | 4.23 ± 0.47 h
COc1nsc(NC(=O)N[C@H]2C[C@@H](N(C)c3c(C#N)cnc4[nH]ccc34)C2)n1 [Compound H29, (cis)-1-(3-((5-cyano-1H-pyrrolo[2,3-b]pyridin-4-yl)(methyl)amino)cyclobutyl)-3-(3-methoxy-1,2,4-thiadiazole-5-yl)urea] | 0.016 µM | 0.87 µM | 33.03 ± 4.23% | 41.65 ± 2.21% | 40.10 ± 4.32% | 1530 ± 176 ng·h/mL | 522 ± 23 ng/mL | 4.43 ± 0.32 h
CC(C)c1nsc(NC(=O)N2C[C@H]3C[C@H](N(C)c4c(C#N)cnc5[nH]ccc45)C[C@H]3C2)n1 [Compound H30, (3aR,5s,6aS)-4-({2-[(3-isopropyl-1,2,4-thiadiazole-5-yl)carbamoyl]-hexahydrocyclopenta[c]pyrrole-5-yl}-methyl-amino)-1H-pyrrolo[2,3-b]pyridin-5-carbonitrile] | 0.018 µM | 1.23 µM | 33.12 ± 1.38% | 43.43 ± 2.12% | 44.52 ± 4.37% | 923 ± 263 ng·h/mL | 433 ± 16 ng/mL | 2.47 ± 0.46 h
CN(c1c(C#N)cnc2[nH]ccc12)[C@H]1C[C@@H]2CN(C(=O)Nc3nc(OCC(C)(C)N)ns3)C[C@@H]2C1 [Compound H44, (3aR,5s,6aS)-5-((5-cyano-1H-pyrrolo[2,3-b]pyridin-4-yl)(methyl)amino)-N-(3-(2-amino-2-methyl-propoxy)-1,2,4-thiadiazole-5-yl)hexahydrocyclopentadiene[c]pyrrole-2(1H)-carboxamide] | 0.014 µM | 0.73 µM | 31.03 ± 2.43% | 42.65 ± 2.21% | 41.56 ± 3.32% | 1680 ± 120 ng·h/mL | 619 ± 39 ng/mL | 4.17 ± 0.45 h
C[C@@H]1CCN(C(=O)CC#N)C[C@@H]1N(C)c1c(C#N)cnc2[nH]ccc12 [Compound H11, 4-{[(3R,4R)-1-(2-cyanoacetyl)-4-methylpiperidin-3-yl]-methyl-amino}-1H-pyrrolo[2,3-b]pyridin-5-carbonitrile] | 0.013 µM | 0.68 µM | 30.22 ± 2.62% | 39.76 ± 1.20% | 40.25 ± 5.47% | 2620 ± 10 ng·h/mL | 428 ± 32 ng/mL | 8.53 ± 0.67 h
CN(C)c1nsc(NC(=O)N2C[C@H]3C[C@H](N(C)c4c(C#N)cnc5[nH]ccc45)C[C@H]3C2)n1 [Compound H33, (3aR,5s,6aS)-4-({2-[(3-dimethylamino-1,2,4-thiadiazole-5-yl)carbamoyl]-hexahydrocyclopenta[c]pyrrole-5-yl}-methyl-amino)-1H-pyrrolo[2,3-b]pyridin-5-carbonitrile] | 0.023 µM | 1.1 µM | 30.78 ± 2.62% | 31.76 ± 1.86% | 41.75 ± 5.67% | 1820 ± 173 ng·h/mL | 440 ± 89 ng/mL | 8.64 ± 0.23 h
CN(c1c(C#N)cnc2[nH]ccc12)[C@H]1C[C@@H](NS(=O)(=O)CCC(F)(F)F)C1 [Compound H15, (cis)-4-{[3-(3,3,3-trifluoropropanesulfonamide)-cyclobutyl-1-yl]-methyl-amino}-1H-pyrrolo[2,3-b]pyridin-5-carbonitrile] | 0.014 µM | 0.073 µM | 36.02 ± 1.37% | 43.33 ± 2.30% | 43.24 ± 4.36% | 1520 ± 241 ng·h/mL | 518 ± 24 ng/mL | 5.11 ± 0.16 h
CN(c1c(C#N)cnc2[nH]ccc12)[C@H]1C[C@@H]2CN(C(=O)NCC(F)(F)F)C[C@@H]2C1 [Compound H22, (3aR,5s,6aS)-4-({2-[(2,2,2-trifluoroethyl)-carbamoyl]-hexahydrocyclopenta[c]pyrrole-5-yl}-methyl-amino)-1H-pyrrolo[2,3-b]pyridin-5-carbonitrile] | 0.019 µM | 1.76 µM | 31.22 ± 2.62% | 41.76 ± 1.20% | 42.25 ± 5.67% | 757 ± 169 ng·h/mL | 213 ± 22 ng/mL | 3.11 ± 0.64 h
COc1nsc(NC(=O)N2C[C@H]3C[C@H](N(C)c4c(C#N)cnc5[nH]ccc45)C[C@H]3C2)n1 [Compound H07, (3aR,5s,6aS)-4-({2-[(3-methoxy-1,2,4-thiadiazole-5-yl)carbamoyl]-hexahydrocyclopenta[c]pyrrole-5-yl}-methyl-amino)-1H-pyrrolo[2,3-b]pyridin-5-carbonitrile] | 0.024 µM | 0.073 µM | 37.02 ± 1.35% | 42.33 ± 2.20% | 41.24 ± 3.36% | 1920 ± 20 ng·h/mL | 578 ± 43 ng/mL | 4.62 ± 0.87 h
CCCS(=O)(=O)N[C@H]1C[C@@H](N(C)c2c(C#N)cnc3[nH]ccc23)C1 [Compound H14, (cis)-4-{[3-(propanesulfonamido)-cyclobutyl-1-yl]-methyl-amino}-1H-pyrrolo[2,3-b]pyridin-5-carbonitrile] | 0.017 µM | 0.63 µM | 39.03 ± 4.53% | 40.65 ± 2.51% | 39.00 ± 4.25% | 915 ± 240 ng·h/mL | 438 ± 24 ng/mL | 2.11 ± 0.16 h
